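1) Cells in 96-well plates. 2) Compound, 48 h, 5 concentrations. 3) Linear interpolation between surrounding doses. 4) Unreached endpoint = highest concentration. GI50 is the concentration that inhibits growth by half.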 The source made the active and inactive calls. No stated cut-off is given here; in the data, active = GI50 up to about 1.1 µM and inactive = higher.
Columns and labels:
Assay in all cases: NCI tumour cell line growth inhibition, 48 h
786-0 = tested on: 786-0
A498 = tested on: A498
A549 = tested on: A549
ACHN = tested on: ACHN
CCRF-CEM = tested on: CCRF-CEM
COLO 205 = tested on: COLO 205
DU-145 = tested on: DU-145
EKVX = tested on: EKVX
HCC 2998 = tested on: HCC 2998
HCT-116 = tested on: HCT-116
HCT-15 = tested on: HCT-15
HL-60 = tested on: HL-60
HOP-62 = tested on: HOP-62
HOP-92 = tested on: HOP-92
HT-29 = tested on: HT-29
Hs-578T = tested on: Hs-578T
IGROV-1 = tested on: IGROV-1
KM12 = tested on: KM12
LOX IMVI = tested on: LOX IMVI
M14 = tested on: M14
MCF7 = tested on: MCF7
MDA-MB-231 = tested on: MDA-MB-231
MDA-MB-435 = tested on: MDA-MB-435
MOLT-4 = tested on: MOLT-4
Malme-3M = tested on: Malme-3M
NCI-H226 = tested on: NCI-H226
NCI-H23 = tested on: NCI-H23
NCI-H460 = tested on: NCI-H460
NCI/ADR-RES = tested on: NCI/ADR-RES
OVCAR-4 = tested on: OVCAR-4
OVCAR-5 = tested on: OVCAR-5
OVCAR-8 = tested on: OVCAR-8
RPMI-8226 = tested on: RPMI-8226
RXF 393 = tested on: RXF 393
SF-268 = tested on: SF-268
SF-295 = tested on: SF-295
SF-539 = tested on: SF-539
SK-MEL-28 = tested on: SK-MEL-28
SK-MEL-5 = tested on: SK-MEL-5
SK-OV-3 = tested on: SK-OV-3
SN12C = tested on: SN12C
SNB-19 = tested on: SNB-19
SNB-75 = tested on: SNB-75
SR = tested on: SR
SW-620 = tested on: SW-620
T47D = tested on: T47D
TK-10 = tested on: TK-10
U-251 = tested on: U-251
UACC-257 = tested on: UACC-257
UACC-62 = tested on: UACC-62
UO-31 = tested on: UO-31
CAKI-1 = tested on: CAKI-1
K562 = tested on: K562
MDA-N = tested on: MDA-N
NCI-H522 = tested on: NCI-H522
OVCAR-3 = tested on: OVCAR-3
PC-3 = tested on: PC-3
SK-MEL-2 = tested on: SK-MEL-2

Measured: GI50

COC(=O)CC[N+]1([O-])CC1
> 100 µM: HCT-15
inactive: 786-0 > 100 µM | A498 33.2 µM | A549 > 100 µM | ACHN > 100 µM | CCRF-CEM > 100 µM | COLO 205 > 100 µM | DU-145 > 100 µM | EKVX > 100 µM | HCC 2998 > 100 µM | HCT-116 > 100 µM | HL-60 > 100 µM | HOP-62 > 100 µM | HOP-92 > 100 µM | HT-29 > 100 µM | Hs-578T > 100 µM | IGROV-1 > 100 µM | KM12 > 100 µM | LOX IMVI > 100 µM | M14 > 100 µM | MCF7 > 100 µM | MDA-MB-231 > 100 µM | MDA-MB-435 > 100 µM | MOLT-4 > 100 µM | Malme-3M > 100 µM | NCI-H226 > 100 µM | NCI-H23 > 100 µM | NCI-H460 > 100 µM | NCI/ADR-RES > 100 µM | OVCAR-4 > 100 µM | OVCAR-5 > 100 µM | OVCAR-8 > 100 µM | RPMI-8226 > 100 µM | RXF 393 > 100 µM | SF-268 > 100 µM | SF-295 > 100 µM | SF-539 > 100 µM | SK-MEL-28 > 100 µM | SK-MEL-5 > 100 µM | SK-OV-3 > 100 µM | SN12C > 100 µM | SNB-19 > 100 µM | SNB-75 > 100 µM | SR > 100 µM | SW-620 > 100 µM | T47D > 100 µM | TK-10 > 100 µM | U-251 > 100 µM | UACC-257 > 100 µM | UACC-62 > 100 µM | UO-31 > 100 µM

CCO/C=N\C1=C(C#N)SC2=N/C(=C\c3ccc(OC)cc3)C(=O)N21
85.9 µM: HCT-15
inactive: 786-0 40.6 µM | A498 > 100 µM | A549 > 100 µM | ACHN 94.2 µM | CAKI-1 > 100 µM | CCRF-CEM > 100 µM | COLO 205 > 100 µM | DU-145 > 100 µM | EKVX 60.1 µM | HCC 2998 39.5 µM | HCT-116 > 100 µM | HL-60 87.1 µM | HOP-92 > 100 µM | HT-29 > 100 µM | Hs-578T 33.7 µM | IGROV-1 96.8 µM | K562 25.9 µM | KM12 > 100 µM | LOX IMVI > 100 µM | M14 > 100 µM | MCF7 > 100 µM | MDA-MB-231 80.5 µM | MDA-MB-435 > 100 µM | MDA-N > 100 µM | MOLT-4 > 100 µM | Malme-3M > 100 µM | NCI-H226 > 100 µM | NCI-H23 > 100 µM | NCI-H522 79.8 µM | NCI/ADR-RES > 100 µM | OVCAR-4 15.4 µM | OVCAR-5 > 100 µM | OVCAR-8 > 100 µM | RPMI-8226 > 100 µM | RXF 393 43.5 µM | SF-268 45.4 µM | SF-295 59.3 µM | SF-539 > 100 µM | SK-MEL-28 > 100 µM | SK-MEL-5 > 100 µM | SK-OV-3 96.8 µM | SN12C > 100 µM | SNB-19 83.6 µM | SNB-75 19.2 µM | SR 82.8 µM | SW-620 > 100 µM | T47D > 100 µM | TK-10 58.2 µM | U-251 75.3 µM | UACC-257 > 100 µM | UO-31 > 100 µM

COc1ccc(/C=C2\OC(=O)C(Cl)=C2c2ccc(OC)c(Cl)c2)cc1
inactive: 786-0 15.4 µM | A498 17.7 µM | A549 24.4 µM | ACHN 30.4 µM | CAKI-1 21.9 µM | CCRF-CEM 29.2 µM | COLO 205 40.4 µM | DU-145 36.3 µM | EKVX 18.3 µM | HCC 2998 35.3 µM | HCT-116 39.1 µM | HL-60 47.1 µM | HOP-62 15.2 µM | HOP-92 17.9 µM | HT-29 43.2 µM | Hs-578T 20.9 µM | IGROV-1 32 µM | K562 56.1 µM | KM12 28.7 µM | LOX IMVI 32.1 µM | M14 25.4 µM | MCF7 19.9 µM | MDA-MB-435 23.8 µM | MDA-N 17.7 µM | MOLT-4 48.9 µM | Malme-3M 25.3 µM | NCI-H23 20 µM | NCI-H460 22.6 µM | NCI-H522 25.3 µM | NCI/ADR-RES 21.4 µM | OVCAR-3 20 µM | OVCAR-4 20.3 µM | OVCAR-5 24.6 µM | OVCAR-8 21.1 µM | PC-3 30.8 µM | RPMI-8226 24.9 µM | RXF 393 12 µM | SF-268 17.3 µM | SF-295 25.5 µM | SF-539 15.2 µM | SK-MEL-28 35.7 µM | SK-MEL-2 49.8 µM | SK-MEL-5 17.3 µM | SK-OV-3 33.9 µM | SNB-19 34.1 µM | SNB-75 19.7 µM | SR 29 µM | SW-620 36.6 µM | T47D 32.1 µM | TK-10 21.7 µM | U-251 29.4 µM | UACC-257 34.7 µM | UACC-62 26.5 µM | UO-31 22 µM
45 µM: HCT-15

Reference: ChEMBL document CHEMBL1201862, “PubChem BioAssay data set” (2004)
